Laboratory results as given in PubChem BioAssay AID248 (DTP/NCI, 2004).
Inconclusive results and toxic doses are left out.

Tested on: L1210 leukemia ip in BDF1 mice, survival T/C
Experiment: NCI In Vivo Anticancer Drug Screen. Data for tumor model L1210 Leukemia (intraperitoneal) in B6D2F1 (BDF1) mice
Details: endpoint: mean survival time, higher = longer survival
Method in brief: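 Survival endpoint. Drug-treated group vs vehicle group, expressed as T divided by C. Tumor passaged by transplantation.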

[1] = dose: 100.0 mg/kg/injection, schedule: Q01DX009 (ip), vehicle: saline with Tween-80
[2] = dose: 100.0 mg/kg/injection, schedule: Q04DX003 (ip), vehicle: saline with Tween-80
[3] = dose: 200.0 mg/kg/injection, schedule: Q01DX009 (ip), vehicle: saline with Tween-80
[4] = dose: 200.0 mg/kg/injection, schedule: Q04DX003 (ip), vehicle: saline with Tween-80
[5] = dose: 400.0 mg/kg/injection, schedule: Q01DX009 (ip), vehicle: saline with Tween-80
[6] = dose: 400.0 mg/kg/injection, schedule: Q04DX003 (ip), vehicle: saline with Tween-80
[7] = dose: 100.0 mg/kg/injection, schedule: Q01DX001 (ip), vehicle: carboxymethylcellulose (CMC)
[8] = dose: 200.0 mg/kg/injection, schedule: Q01DX001 (ip), vehicle: carboxymethylcellulose (CMC)
[9] = dose: 400.0 mg/kg/injection, schedule: Q01DX001 (ip), vehicle: carboxymethylcellulose (CMC)
[10] = dose: 100.0 mg/kg/injection, schedule: Q01DX001 (ip), vehicle: saline
[11] = dose: 200.0 mg/kg/injection, schedule: Q01DX001 (ip), vehicle: saline

## CC(C)CC(N)C(=O)NNc1ccccc1 (stereo not drawn)
dose: 75.0 mg/kg/injection, schedule: Q01DX001 (ip), vehicle: saline
  T/C: 101 % of control
dose: 150.0 mg/kg/injection, schedule: Q01DX001 (ip), vehicle: saline
  T/C: 103 % of control
dose: 300.0 mg/kg/injection, schedule: Q01DX001 (ip), vehicle: saline
  T/C: 108 % of control

## CC(O)C12OC1CC1C3CC4OC45CC(O)CCC5(C)C3CCC12C (stereo not drawn)
dose: 100.0 mg/kg/injection, schedule: Q01DX001 (sc), vehicle: steriod suspending solution
  T/C: 106 % of control
dose: 200.0 mg/kg/injection, schedule: Q01DX001 (sc), vehicle: steriod suspending solution
  T/C: 103 % of control
dose: 400.0 mg/kg/injection, schedule: Q01DX001 (sc), vehicle: steriod suspending solution
  T/C: 109 % of control

## O=C(Nc1cccc2c1N(C(=O)c1ccco1)CCC2)c1ccco1
[1]
  T/C: 98 % of control
[2]
  T/C: 94 % of control
[3]
  T/C: 101 % of control
[4]
  T/C: 96 % of control
[5]
  T/C: 95 % of control
[6]
  T/C: 96 % of control

## O=C(NCCCl)Nc1ncccn1
[7]
  T/C: 97 % of control
[8]
  T/C: 106 % of control
[9]
  T/C: 103 % of control

## CN(C)CCO/C(CN(C)C)=C(\C#N)c1ccccc1
dose: 15.0 mg/kg/injection, schedule: Q01DX001 (ip), vehicle: carboxymethylcellulose (CMC)
  T/C: 92 % of control
dose: 30.0 mg/kg/injection, schedule: Q01DX001 (ip), vehicle: carboxymethylcellulose (CMC)
  T/C: 95 % of control

## CCCCCCC(=O)OCCN1CCN(CC/C=C2\c3ccccc3Sc3ccc(C(F)(F)F)cc32)CC1
dose: 50.0 mg/kg/injection, schedule: Q01DX001 (ip), vehicle: carboxymethylcellulose (CMC)
  T/C: 94 % of control
dose: 50.0 mg/kg/injection, schedule: Q01DX009 (ip), vehicle: saline
  T/C: 123 % of control
[7]
  T/C: 92 % of control
dose: 100.0 mg/kg/injection, schedule: Q01DX009 (ip), vehicle: saline
  T/C: 108 % of control
dose: 132.0 mg/kg/injection, schedule: Q04DX003 (ip), vehicle: saline
  T/C: 103 % of control
[8]
  T/C: 94 % of control
dose: 200.0 mg/kg/injection, schedule: Q04DX003 (ip), vehicle: saline
  T/C: 110 % of control
[9]
  T/C: 94 % of control

## Cc1ccc2nc(NC(=O)N(CCCl)N=O)sc2c1
dose: 53.0 mg/kg/injection, schedule: Q01DX009 (ip), vehicle: carboxymethylcellulose (CMC)
  T/C: 103 % of control
dose: 80.0 mg/kg/injection, schedule: Q01DX009 (ip), vehicle: carboxymethylcellulose (CMC)
  T/C: 113 % of control
dose: 118.0 mg/kg/injection, schedule: Q01DX001 (ip), vehicle: other
  T/C: 150 % of control
dose: 118.0 mg/kg/injection, schedule: Q01DX006 (ip), vehicle: other
  T/C: 193 % of control
dose: 120.0 mg/kg/injection, schedule: Q01DX009 (ip), vehicle: carboxymethylcellulose (CMC)
  T/C: 114 % of control
dose: 180.0 mg/kg/injection, schedule: Q01DX001 (ip), vehicle: carboxymethylcellulose (CMC)
  T/C: 157 % of control
[8]
  T/C: 158 % of control
dose: 266.0 mg/kg/injection, schedule: Q01DX006 (ip), vehicle: other
  T/C: 98 % of control
dose: 266.0 mg/kg/injection, schedule: Q01DX009 (ip), vehicle: carboxymethylcellulose (CMC)
  T/C: 161 % of control
[9]
  T/C: 170 % of control
dose: 400.0 mg/kg/injection, schedule: Q01DX006 (ip), vehicle: other
  T/C: 90 % of control

## CC(C)C1(NC(=O)C2C=C3c4cccc5[nH]cc(c45)CC3N(C)C2)OC2(O)C3CCCN3C(=O)C(Cc3ccccc3)N2C1=O (stereo not drawn) (tested in a mixture with another compound)
[10]
  T/C: 107 % of control
[11]
  T/C: 102 % of control
dose: 400.0 mg/kg/injection, schedule: Q01DX001 (ip), vehicle: saline
  T/C: 100 % of control

## CC1(c2ccncc2)OCCO1
[10]
  T/C: 97 % of control
[11]
  T/C: 101 % of control

## Cc1cc(NC(=O)COc2ccc([N+](=O)[O-])cc2Cl)ccc1S(=O)(=O)F
dose: 100.0 mg/kg/injection, schedule: Q01DX001 (ip), vehicle: saline with Tween-80
  T/C: 102 % of control
dose: 200.0 mg/kg/injection, schedule: Q01DX001 (ip), vehicle: saline with Tween-80
  T/C: 98 % of control
dose: 400.0 mg/kg/injection, schedule: Q01DX001 (ip), vehicle: saline with Tween-80
  T/C: 93 % of control

## COCC(CNO)OC(=O)c1ccc(N)cc1 (stereo not drawn)
dose: 55.0 mg/kg/injection, schedule: Q01DX Z (ip), vehicle: saline
  T/C: 89 % of control
dose: 125.0 mg/kg/injection, schedule: Q01DX Z (ip), vehicle: saline
  T/C: 100 % of control

## Cc1nn2c(C(=O)O)nnc2s1
[7]
  T/C: 93 % of control
[8]
  T/C: 98 % of control
[9]
  T/C: 93 % of control

## CC(C(=O)c1ccc(Br)cc1)C(Br)c1ccccc1 (stereo not drawn)
[1]
  T/C: 95 % of control
[2]
  T/C: 96 % of control
[3]
  T/C: 95 % of control
[4]
  T/C: 91 % of control
[5]
  T/C: 95 % of control
[6]
  T/C: 98 % of control

## NC(=O)c1c(F)c(F)c(N)c(F)c1F
dose: 100.0 mg/kg/injection, schedule: Q04DX002 (ip), vehicle: Klucel (hydroxypropylcellulose) (HPC)
  T/C: 96 % of control
dose: 200.0 mg/kg/injection, schedule: Q04DX002 (ip), vehicle: Klucel (hydroxypropylcellulose) (HPC)
  T/C: 93 % of control
dose: 400.0 mg/kg/injection, schedule: Q04DX002 (ip), vehicle: Klucel (hydroxypropylcellulose) (HPC)
  T/C: 118 % of control
